From US20220193242A1, “IMMUNOPHILIN-DEPENDENT INHIBITORS AND USES THEREOF” (The Regents of the University of California, priority 2019, published 2022)

Assays:
FKBP12 [1] = molecular target: T1, FKBP12 (Homo sapiens, UniProt P62942); assay: FKBP12 dependence of activity (FIG. 19)
[2] = test system: TCR signaling (phospho-tyrosine) in Jurkat cells; assay: CD3 crosslinking (OKT3) triggered T cell activation in Jurkat cells, Western blot; format: cell-based
Method: (§1) FIGS. 3A-3D. […] The phosphotyrosine levels were monitored by Western blot at various time points over 24 h.
FIG. 25. […] Jurkat cells (1×10^6/mL) were treated with the indicated drugs for 1 h, then stimulated with anti-CD3 mAb OKT3 (5 μg/mL) for 5 min. before lysis and analysis.

K562 = details: K562, 72 h treatment
Method: FIG. 27. […] K562 (seeding density 5×10^4/mL) cells, 72 h treatment.

Src and HA-FKBP12 = molecular target: T2, Src and HA-FKBP12 (Homo sapiens, UniProt P12931+P62942); assay: Immunoprecipitation of HA-FKBP12 from Jurkat cell lysate; format: binding; details: Jurkat cell lysate 1 mg/mL, 1 μM compound
T2 construct: endogenous in cells; host or cells: Jurkat cell lysate (Src); HA-FKBP12 added as purified protein
Method: FIGS. 2A-2C. […] Fractions of 0.5 mL were collected and analyzed by SDS-PAGE.
FIG. 23. […] Pulldown was performed with Jurkat cell lysate (1 mg/mL, 200 μL), supplemented with 2 μg HA-FKBP12. Pulldown/wash buffer: 50 mM Tris 7.4, 120 mM NaCl, 1% NP-40, 1 mM EDTA, phosphatase/protease inhibitors.

[3] = test system: phosphotyrosine levels in Jurkat cells; assay: Drug washout, phosphotyrosine levels over 24 h in Jurkat cells; format: cell-based; details: 100 nM for 1 h
Method: as §1
FIG. 26. […] Jurkat cells (1×10^6/mL) were treated with 100 nM of the indicated compounds for 1 h, then were washed 3 times with PBS and resuspended in culture media. Samples were taken at the indicated time points and lysed immediately.

KRAS and CypA = KRAS and CypA (Homo sapiens, UniProt P01116+P62937, G12C); assay: Melting curve of the KRAS.CypA complex; format: binding
HRAS, CypA, Sos = HRAS, CypA, Sos (Homo sapiens, UniProt P01112+P62937, M72C); assay: HRAS.CypA ternary complex and Sos-mediated nucleotide exchange; format: biochemical
Method: FIG. 44. […] Assay conditions: 1 μM Ras.GDP, 1 μM Mant-GDP, 20 mM EPES 7.5, 150 mM NaCl, 10 mM EDTA or 1 μM Sos. 95A is synonymous to 06-031.

Ras.Raf binding = Ras.Raf binding pulldown; details: HRAS.CypA ternary complex
Method: FIG. 45. […] Pulldown conditions: 100 nM KRAS, 50 μg/mL BSA, 20 mM HEPES 7.5, 150 mM NaCl, 5 mM MgCl2, 1 mM […], 1% NP-40. GppNHp loaded proteins were prepared by EDTA-mediated nucleotide exchange.

LRRK2 = assay: Inhibition of LRRK2 autophosphorylation; format: cell-based
Method: (§2) FIGS. 4A-4C. A general approach to construct FKBP-dependent, programmable kinase inhibitors. (FIG. 4A) Structures of lapatinib and FK-lapatinib, their effects on HER2 signaling and the growth inhibition of SK-BR-3 cells by these compounds. (FIGS. 4B-4C) Structures of GNE7915 and FK-GNE7915 and their inhibition of LRRK2 autophosphorylation.
FIG. 30. […] 3T3 or RAW264.7 cells (MJFF cell line), 2 h treatment.
(§3) We extended our design strategy and prepared two other bispecific ligands based on the structures of an FDA-approved HER2/EGFR inhibitor (lapatinib) and an LRRK2 inhibitor in clinical development (GNE7915). […] With the three case studies presented above, we cautiously anticipate that the same workflow could be applied to convert other kinase inhibitors into FKBP-dependent formats with similar if not better cellular activities.

FKBP12 [4] = molecular target: T1, FKBP12; assay: Fluorescence polarization assay of binding to FKBP12
HER2 = HER2 signaling in SK-BR-3 cells; format: cell-based; details: 1 μM
Source text: as §2, §3

SK-BR-3 cells = assay: Growth inhibition of SK-BR-3 cells; format: cell-based
Source text: as §2, §3

[5] = test system: 139 kinases captured by the probe XO44; assay: In-cell kinase occupancy profiling with chemoproteomic probe XO44 in Jurkat cells; format: cell-based; details: 100 nM, among 139 kinases captured by XO44, Jurkat cells

T1 sequence (P62942 whole entry): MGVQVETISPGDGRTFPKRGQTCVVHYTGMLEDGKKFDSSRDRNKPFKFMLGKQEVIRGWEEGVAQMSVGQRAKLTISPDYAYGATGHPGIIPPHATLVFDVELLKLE
T2 sequence (P12931 2-536 limits assumed): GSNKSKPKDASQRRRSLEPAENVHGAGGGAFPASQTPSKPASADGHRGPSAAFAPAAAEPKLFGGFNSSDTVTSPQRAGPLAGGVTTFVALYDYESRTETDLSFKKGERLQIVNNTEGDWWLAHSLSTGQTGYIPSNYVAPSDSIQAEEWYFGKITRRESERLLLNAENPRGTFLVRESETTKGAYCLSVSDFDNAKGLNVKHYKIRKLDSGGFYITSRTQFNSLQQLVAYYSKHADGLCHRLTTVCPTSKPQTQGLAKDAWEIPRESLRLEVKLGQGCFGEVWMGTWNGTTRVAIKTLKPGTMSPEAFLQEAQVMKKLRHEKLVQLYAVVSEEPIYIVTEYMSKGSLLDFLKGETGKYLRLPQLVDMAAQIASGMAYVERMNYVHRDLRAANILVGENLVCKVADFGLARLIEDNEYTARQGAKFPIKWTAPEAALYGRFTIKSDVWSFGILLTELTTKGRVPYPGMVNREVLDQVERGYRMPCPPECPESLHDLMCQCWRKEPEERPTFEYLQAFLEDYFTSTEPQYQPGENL
T2 sequence (P62942 whole entry): as the sequence (P62942 whole entry) above

CO[C@H]1C[C@@H](C)C/C(C)=C/[C@@H](CCCC(=O)N2CCN(c3cc(Nc4ncc(C(=O)Nc5c(C)cccc5Cl)s4)nc(C)n3)CC2)C(=O)C[C@H](O)[C@@H](C)[C@@H](/C(C)=C/[C@@H]2CC[C@@H](O)[C@H](OC)C2)OC(=O)[C@@H]2CCCCN2C(=O)C(=O)[C@]2(O)O[C@H]1[C@@H](OC)C[C@H]2C [Compound 05-022]
dependence of activity on FKBP12 (FKBP12 [1]): dependent on FKBP12 | inhibition of phosphotyrosine signal [2]: potently inhibits | growth inhibition (K562): FKBP-dependent growth inhibition | co-immunoprecipitation of Src with HA-FKBP12 (Src and HA-FKBP12): form a stable ternary complex | durability of effect after washout ([3]; washed 3 times with PBS): durable after washout

C=CC(=O)N1CCN(c2nc(NCCC(=O)NCCNC(=O)CCC[C@@H](C)[C@@H](O)[C@H]3C(=O)N[C@@H](CC)C(=O)N(C)CC(=O)N(C)[C@@H](CC(C)C)C(=O)N[C@@H](C(C)C)C(=O)N(C)[C@@H](CC(C)C)C(=O)N[C@@H](C)C(=O)N[C@H](C)C(=O)N(C)[C@@H](CC(C)C)C(=O)N(C)[C@@H](CC(C)C)C(=O)N(C)[C@@H](C(C)C)C(=O)N3C)nc3c(F)c(-c4c(O)cccc4F)c(Cl)cc23)CC1 [Compound 07-014]
melting curve of the complex (KRAS and CypA): 2-stage melting curve

C=CC(=O)Nc1cc(Cl)cc(NC(=O)c2cnn(-c3ccc(OCC(=O)N4CCN(C(=O)CCC[C@@H](C)[C@@H](O)[C@H]5C(=O)N[C@@H](CC)C(=O)N(C)CC(=O)N(C)[C@@H](CC(C)C)C(=O)N[C@@H](C(C)C)C(=O)N(C)[C@@H](CC(C)C)C(=O)N[C@@H](C)C(=O)N[C@H](C)C(=O)N(C)[C@@H](CC(C)C)C(=O)N(C)[C@@H](CC(C)C)C(=O)N(C)[C@@H](C(C)C)C(=O)N5C)CC4)cc3)c2C(F)(F)F)c1 [Compound 08-058]
Sos-mediated nucleotide exchange (HRAS, CypA, Sos; 1 μM Ras.GDP, 1 μM Mant-GDP, 1 μM Sos): inhibits Sos-mediated nucleotide exchange | ternary complex formation (HRAS, CypA, Sos; HRAS, CypA): forms a ternary complex | Ras.Raf binding (Ras.Raf binding): does not seem to impair Ras.Raf binding

CCNc1nc(Nc2cc(F)c(C(=O)N3CCN(C(=O)CCC[C@@H]4/C=C(\C)C[C@H](C)C[C@H](OC)[C@H]5O[C@@](O)(C(=O)C(=O)N6CCCC[C@H]6C(=O)O[C@H](/C(C)=C/[C@@H]6CC[C@@H](O)[C@H](OC)C6)[C@H](C)[C@@H](O)CC4=O)[C@H](C)C[C@@H]5OC)CC3)cc2OC)ncc1C(F)(F)F [Compound 08-074]
cellular activity compared to parent compound (LRRK2; 3T3 or RAW264.7 cells, 2 h treatment): more potent cellular activity than its parent compound GNE-7915

C=CC[C@@H]1/C=C(\C)C[C@H](C)C[C@H](OC)[C@H]2O[C@@](O)(C(=O)C(=O)N3CCCC[C@H]3C(=O)O[C@H](/C(C)=C/[C@@H]3CC[C@@H](O)[C@H](OC)C3)[C@H](C)[C@@H](O)CC1=O)[C@H](C)C[C@@H]2OC [FK506, tacrolimus, reference compound]
co-immunoprecipitation of Src with HA-FKBP12 (Src and HA-FKBP12): not

CO[C@H]1C[C@@H](C)C/C(C)=C/[C@@H](CCCC(=O)N2CCN(c3cc(Nc4ncc(C(=O)Nc5c(C)cccc5Cl)s4)nc(C)n3)CC2)C(=O)C[C@H](O)[C@@H](C)[C@@H](/C(C)=C/[C@@H]2CC[C@@H](O)[C@H](OC)C2)OC(=O)[C@@H]2CCCCN2C(=O)C(=O)[C@]2(O)O[C@H]1[C@@H](OC)C[C@H]2C [FK506-Dasatinib]
Kd (FKBP12 [4]): 23 nM

CCNc1nc(Nc2cc(F)c(C(=O)N3CCN(C(=O)CCC[C@@H]4/C=C(\C)C[C@H](C)C[C@H](OC)[C@H]5O[C@@](O)(C(=O)C(=O)N6CCCC[C@H]6C(=O)O[C@H](/C(C)=C/[C@@H]6CC[C@@H](O)[C@H](OC)C6)[C@H](C)[C@@H](O)CC4=O)[C@H](C)C[C@@H]5OC)CC3)cc2OC)ncc1C(F)(F)F [FK-GNE7915]
inhibition of LRRK2 autophosphorylation compared to parent (LRRK2): more efficacious than its parent molecule GNE7915

CO[C@H]1C[C@@H](C)C/C(C)=C/[C@@H](CCCC(=O)N2CCN(Cc3ccc(-c4ccc5ncnc(Nc6ccc(OCc7cccc(F)c7)c(Cl)c6)c5c4)o3)CC2)C(=O)C[C@H](O)[C@@H](C)[C@@H](/C(C)=C/[C@@H]2CC[C@@H](O)[C@H](OC)C2)OC(=O)[C@@H]2CCCCN2C(=O)C(=O)[C@]2(O)O[C@H]1[C@@H](OC)C[C@H]2C [FK-lapatinib]
HER2 signaling (HER2): suppressed | IC50 of growth inhibition (SK-BR-3 cells): comparable to that of lapatinib

Cc1nc(Nc2ncc(C(=O)Nc3c(C)cccc3Cl)s2)cc(N2CCN(CCO)CC2)n1 [dasatinib, reference compound]
number of kinases inhibited >70% [5]: 9 | time after drug washout at which phosphotyrosine signal is restored ([3]; then drug removed): ≤ 1 h
